Reference: publication PMC3740782, “Synthesis of some potent immunomodulatory and anti-inflammatory metabolites by fungal transformation of anabolic steroid oxymetholone” (Chemistry Central Journal, 2012)

Experiments:
T-cells = test system: T-cells; parameters: method as in PMID 11071398; conditions: by decreasing the activity of T-cells; cited from earlier work
[1] = test system: ROS production in whole blood phagocytes; test: Luminol-enhanced phagocyte chemiluminescence assay, ROS production in whole blood; type: cell-based; conditions: zymosan activated, luminol probe, mean of triplicate ± SD; for IC50: Homo sapiens
Description: (§1) Luminol-enhanced chemiluminescence assay was performed according to the previous reported method. Briefly 25 μL of whole blood or neutrophils (1 × 10^6/mL), suspended in Hank’s solution, were incubated with 25 μL compounds (1, 10, 100 μg/mL for whole blood and 0.5, 5, 50 μg/mL for neutrophils) for 30 min. Zymosan 25 μL (20 mg/mL), followed by 25 μL (7 × 10^-5 M) of luminol was added to make a final volume of 100 μL. A control without the compound was also run. Peak chemiluminescence was recorded using the luminometer. The luminometer was set with repeated scan mode, 50 scans with 30 s intervals and one second point measuring time.

ROS production in PMNs = test: Luminol-enhanced phagocyte chemiluminescence assay, ROS production in isolated PMNs (neutrophils); type: cell-based; conditions: Homo sapiens, Neutrophil, zymosan activated, luminol probe, mean of triplicate ± SD
Description: as §1

[2] = test system: T-cell proliferation (PHA activated human peripheral mononuclear cells, PBMC); test: T-cell proliferation inhibition assay (PHA-activated PBMC, tritiated thymidine incorporation); type: cell-based; conditions: PHA (5 μg/mL) stimulated PBMC, 72 h + 18 h thymidine pulse, mean of triplicate ± SD, read-out: IC50, inhibitory effect on T-cell proliferation
Description: Peripheral blood mononuclear cells (PBMC) were isolated from heparinized venous blood of healthy adult donors by Ficoll–Hypaque gradient centrifugation. Cells were proliferated as reported earlier. Briefly, cells were cultured at a concentration of 2 × 10^6/mL in a 96-well round bottom tissue culture plate. Cells were stimulated with 5 μg/mL of phytohemagglutinin. Various concentrations of compounds were added to obtain final concentrations of 0.5, 5, 50 μg/mL, each in triplicate. The plate was incubated for 72 h at 37°C in 5% CO2 environment. After 72 h, cells were pulsed with 0.5 μCi/well, tritiated thymidine, and further incubated for 18 h. Cells were harvested onto a glass fiber filter by using cell harvester. The tritiated thymidine incorporation into the cells, which reflects the proliferation level, was measured by a liquid scintillation counter.

Compound | Immunosuppressant activity in vivo (T-cells) | IC50 [1] [µg/mL] | IC50, ROS production (Whole Blood phagocytes) ([1]; human whole blood) [µg/mL] | IC50 (ROS production in PMNs) [µg/mL] | IC50 [2] [µg/mL] | melting point [°C]
C[C@]12CC(=CO)C(=O)C[C@@H]1CC[C@@H]1[C@@H]2CC[C@@]2(C)[C@H]1CC[C@]2(C)O [Compound 1, 17β-hydroxy-2-(hydroxymethylene)-17α-methyl-5α-androstan-3-one, reference compound] | immunosuppressant activity | ~2 | 2.3 ± 0.0 | 6.3 ± 0.1 | 7.5 ± 0.4 | –
C[C@]12C=C(CO)C(=O)C[C@@H]1CC[C@@H]1[C@@H]2CC[C@@]2(C)[C@H]1CC[C@]2(C)O [Compound 2, 17β-Hydroxy-2-(hydroxymethyl)-17α-methyl-5α-androstan-1-en-3-one] | – | ~2 | – | – | 17.4 ± 1.2 | –
C[C@]12C[C@@H](CO)[C@H](O)C[C@@H]1CC[C@@H]1[C@@H]2CC[C@@]2(C)[C@H]1CC[C@@]2(O)CO [Compound 3, 2α,17α-Di(hydroxymethyl)-5α-androstan-3β-17β-diol] | – | > 100 | – | > 50 | 17 ± 1.2 | –
CC12CC(O)C(O)CC1CCC1C2CCC2(C)C1CCC2(C)O (stereo not drawn) [Compound 4, 17α-Methyl-5α-androstan-2α,3β-17β-triol] | – | > 100 | – | > 50 | 11.8 ± 0.9 | 124 to 125
C[C@]12C=C(CO)C(=O)C=C1CC[C@@H]1[C@@H]2CC[C@@]2(C)[C@H]1CC[C@]2(C)O [Compound 5, 17β-Hydroxy-2-(hydroxymethyl)-17α-methylandrost-1,4-dien-3-one] | – | > 100 | – | > 50 | 31.2 ± 1.9 | 163 to 164
C[C@]12C[C@@H](CO)C(=O)C[C@@H]1CC[C@@H]1[C@@H]2CC[C@@]2(C)[C@H]1CC[C@]2(C)O [Compound 6, 17β-Hydroxy-2α-(hydroxymethyl)-17α-methyl-5α-androstan-3-one] | – | > 100 | – | > 50 | 2.7 ± 0.2 | 197 to 199
C[C@]12C[C@@H](CO)[C@H](O)C[C@@H]1CC[C@@H]1[C@@H]2CC[C@@]2(C)[C@H]1CC[C@]2(C)O [Compound 7, 2α-(Hydroxymethyl)-17α-methyl-5α-androstan-3β-17β-diol] | – | 25.6 | – | > 50 | 10.6 ± 0.4 | 279 to 281
CC(C)Cc1ccc(C(C)C(=O)O)cc1 (centres unmarked) [Ibuprofen, reference compound] | – | 11.2 ± 1.9 | – | 2.5 ± 0.6 | – | –
C[C@]12C=CC(=O)C=C1CC[C@@H]1[C@@H]2[C@@H](O)C[C@@]2(C)[C@H]1CC[C@]2(O)C(=O)CO [Prednisolone, reference compound] | – | – | – | – | < 3.1 | –
